Experimental data taken from the supplement of paper PMC10307832.

Tests used:
Assay in all cases: relative viability (nuclei count vs DMSO), 5 days (fraction); higher = more cells survive
Doramapimod = compound: Cc1ccc(-n2nc(C(C)(C)C)cc2NC(=O)Nc2ccc(OCCN3CCOCC3)c3ccccc23)cc1 [Doramapimod]
How it was run: (§1)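 Viability here means nuclei in treated wells divided by nuclei in vehicle wells, reported as the median across plates. Only plates with control CV below 25% and at least one doubling passed. Lung cancer cell lines in 1536-well plates were exposed to five √10-spaced library-drug doses for 5 days and counted from 4× Hoechst images in MetaXpress.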

RAF265 = compound: Cn1c(Nc2ccc(C(F)(F)F)cc2)nc2cc(Oc3ccnc(-c4ncc(C(F)(F)F)[nH]4)c3)ccc21 [RAF265]
How it was run: as §1

IPA-3 = compound: C1=CC=C2C(=C1)C=CC(=C2SSC3=C(C=CC4=CC=CC=C43)O)O [IPA-3]
How it was run: as §1

Cell Line | relative viability (Doramapimod; 0.02 µM) | relative viability (Doramapimod; 0.06325 µM) | relative viability (Doramapimod; 0.2 µM) | relative viability (Doramapimod; 0.6325 µM) | relative viability (Doramapimod; 2 µM) | relative viability (RAF265; 0.01 µM) | relative viability (RAF265; 0.03162 µM) | relative viability (RAF265; 0.1 µM) | relative viability (RAF265; 0.3162 µM) | relative viability (RAF265; 1 µM) | relative viability (IPA-3; 0.2 µM) | relative viability (IPA-3; 0.6325 µM) | relative viability (IPA-3; 2 µM) | relative viability (IPA-3; 6.325 µM) | relative viability (IPA-3; 20 µM)
201T | 1 | 1.02 | 0.975 | 1.15 | 0.957 | 1.04 | 0.99 | 1.02 | 0.977 | 0.992 | 0.998 | 0.975 | 0.958 | 0.993 | 1.09
A549 | 0.956 | 0.976 | 0.951 | 0.999 | 0.878 | 1.01 | 0.926 | 0.967 | 0.667 | 0.412 | 1.18 | 0.962 | 1.01 | 1.05 | 1.16
A-427 | 0.962 | 1.03 | 1.1 | – | 0.985 | 1.03 | 0.862 | 1.01 | 0.575 | 0.356 | 1.14 | 0.965 | 0.976 | 0.962 | 1.11
ABC-1 | 0.996 | 0.864 | 0.955 | 0.895 | 0.961 | 1.22 | 0.881 | 0.986 | 0.803 | 0.633 | 1.08 | 0.972 | 0.805 | 1.04 | 1.02
BEN | 0.874 | 0.922 | 1 | 0.82 | 0.884 | 0.968 | 1.11 | 1.11 | 0.95 | 0.907 | 0.982 | 0.951 | 1.07 | 0.943 | 1.15
CAL-12T | 0.995 | 0.976 | 1.03 | 1.01 | 0.931 | 1.08 | 0.955 | 0.936 | 0.723 | 0.603 | 1.15 | 0.846 | 0.967 | 0.93 | 1.03
COR-L23 | 1.01 | 1.08 | 0.981 | 0.964 | 0.949 | 1.19 | 0.92 | 0.879 | 0.74 | 0.626 | 1.15 | 0.912 | 1.11 | 0.923 | 0.982
COR-L 105 | 0.861 | 0.93 | 0.935 | 1.1 | 0.993 | 1.08 | 1.05 | 0.954 | 0.463 | 0.563 | 1.2 | 0.882 | 0.901 | 0.984 | 0.827
Calu-6 | 0.995 | 0.979 | 1.04 | 1.09 | 1.01 | 0.97 | 0.842 | 0.791 | 0.505 | 0.347 | 1.1 | 0.971 | 0.984 | 0.998 | 1.04
ChaGo-K-1 | 0.988 | 1.09 | 0.983 | 0.975 | 0.916 | 0.977 | 1.04 | 1.01 | 0.865 | 0.789 | 1.05 | 0.96 | 0.96 | 1.06 | 1.07
EBC-1 | 0.949 | 0.987 | 0.991 | 1.03 | 0.838 | 1.05 | 0.966 | 0.939 | 0.794 | 0.611 | 1.29 | 0.984 | 1.01 | 0.963 | 0.933
EKVX | 0.971 | 0.968 | 0.876 | 1 | 0.952 | 1.11 | 0.988 | 1.09 | 0.573 | 0.796 | 1.08 | 0.994 | 1.05 | 1.01 | 1.32
EMC-BAC-2 | 1 | 1.2 | 1.01 | 0.954 | 0.863 | 0.94 | 0.885 | 0.639 | 0.467 | 0.236 | 1.02 | 1.05 | 1 | 1.02 | 1.09
EPLC-272H | 0.929 | 0.899 | 1.01 | 0.7 | 0.837 | 0.895 | 0.734 | 0.688 | 0.469 | 0.356 | 1.04 | 0.96 | 1 | 0.905 | 1.1
H3255 | 1.05 | 0.981 | 0.96 | 0.968 | 0.933 | 1 | 1.05 | 1.03 | – | 0.67 | 1 | 0.973 | 0.895 | 0.986 | 1.22
HARA | 1.02 | 0.948 | 0.811 | 1.19 | 0.754 | 1.07 | 0.982 | 0.949 | 0.693 | 0.584 | 1.28 | 0.977 | 1.04 | 1.05 | 1.21
HCC-15 | 0.993 | 0.99 | 0.936 | 0.74 | 0.915 | 0.99 | 1.02 | 1.01 | 0.819 | 0.684 | 1.17 | 0.98 | 0.931 | 0.972 | 0.998
HCC-44 | 1.03 | 1.1 | 1.1 | 0.84 | 0.983 | 0.971 | 0.919 | 1.02 | 1.05 | 0.992 | 0.953 | 0.922 | 0.998 | 0.899 | 0.968
HCC-78 | 0.962 | 1.07 | 1.06 | 1.14 | 1.02 | 0.947 | 1.12 | 1.15 | 0.927 | 0.878 | 1.04 | 0.907 | 1.04 | 1.04 | 0.994
HCC-366 | 0.951 | 0.979 | 1 | 1.04 | 0.99 | 1.03 | 0.99 | 1.06 | 0.975 | 0.947 | 1.04 | 0.976 | 0.98 | 1.03 | 1.05
